The numbers were not newly measured in patent US20180280562A1, “Fibrous Structures Comprising Sensates” (The Procter & Gamble Company, priority 2017, published 2018), which cites them from elsewhere.

For this data set the following is noted: concentration where the cooling effect could be clearly recognized.
In the case of `CC(C)[C@@H]1CC[C@@H](C)C[C@@H]1O` [1-neomenthol], the cooling threshold result was “about 3,000 ppb”.

For `CC(C)[C@@H]1CC[C@@H](C)C[C@H]1O` [L-menthol], the cooling threshold result is recorded as “about 800 ppb”.

For `CC(C)[C@@H]1CC[C@@H](C)C[C@@H]1O` [d-neomenthol], the cooling threshold entry was “about 25,000 ppb”.
